Consider four compounds from US9969758B2, “Antimicrobial compounds” (BIOMERIEUX, priority 2014, dated 2018).

Holding throughout (test): MIC by agar dilution, single strains
Format in all cases: cell-based
In general terms: In agar dilution the substance is mixed into plates at graded concentrations.

In assay [1] the test system is Staphylococcus aureus NCTC 11939 (SARM). Particulars: NCTC11939, 22 hours of incubation, read-out: Minimum inhibitory concentration (MIC). The protocol:
(§1) Determining the minimum inhibitory concentrations (MIC). All the MICs were determined using an agar dilution method. This required use of a medium without a defined antagonist (peptone-free), prepared as described previously with the inclusion of 2% horse blood lysed with saponin, 25.0 μg/mL of NAD and 25.0 μg/mL of hemin [17]. The compounds tested were dissolved in sterile deionised water and incorporated into the agar medium in a concentration range of 0.0031 to 8.0 μg/mL (0.016 to 32 μg/mL for gram-positive bacteria). All the isolates were prepared at a density equivalent to 0.5 McFarland units in sterile deionised water using a densitometer (approximately 1.5×10^8 CFU/mL), and then diluted to 1 for 15. An aliquot of 1 μL of each diluted suspension was then placed onto plates with a multispot inoculator to give the final recommended inoculation of 10 000 CFU/spot. The MICs of fosfomycin were determined by the same method, except that the IsoSensitest medium (Oxoid, Basingstoke, United Kingdom) was used, plus 25.0 μg/mL of glucose-6-phosphate (Sigma, Poole, United Kingdom) and an extended range of fosfomycin concentrations. All the dishes (including the antimicrobial-free controls) were incubated for 22 hours at 37° C. All the tests were performed on at least two independent replicates in order to examine the reproducibility.

For assay [2], the system named is Staphylococci epidermidis NCTC 11047. As to conditions: 22 hours of incubation, read-out: Minimum inhibitory concentration (MIC). As for the experimental part: as §1
Assay [3] has as its system Listeria monocytogenes NCTC 11994. As to conditions: NCTC11994, 22 hours of incubation, read-out: Minimum inhibitory concentration (MIC). As for the experimental part:
as §1

For assay [4], the system named is Escherichia coli NCTC 10418. As to conditions: NCTC10418, 22 hours of incubation, read-out: Minimum inhibitory concentration (MIC). The protocol:
as §1

Assay [5] relates to Staphylococcus aureus NCTC 6571. As to conditions: NCTC6571, 22 hours of incubation, read-out: Minimum inhibitory concentration (MIC). As for the experimental part:
as §1

In assay [6] the test system is Enterobacter cloacae NCTC 11936. Particulars: NCTC11936, 22 hours of incubation, read-out: Minimum inhibitory concentration (MIC). As for the experimental part: as §1
Assay [7] has as its system Acinetobacter baumannii ATCC 19606. As to conditions: ATCC19606, 22 hours of incubation, read-out: Minimum inhibitory concentration (MIC). As for the experimental part: as §1
Assay [8] concerns Enterococcus faecium NCTC 7171. As to conditions: NCTC7171, 22 hours of incubation, read-out: Minimum inhibitory concentration (MIC). As for the experimental part:
as §1

Assay [9] concerns Yersinia enterocolitica NCTC 11176. Particulars: NCTC11176, 22 hours of incubation, read-out: Minimum inhibitory concentration (MIC). As for the experimental part: as §1
Assay [10] relates to Enterococcus faecalis NCTC 775. Particulars: NCTC775, 22 hours of incubation, read-out: Minimum inhibitory concentration (MIC). The protocol:
as §1

Assay [11] concerns Burkholderia cepacia ATCC 25416. As to conditions: ATCC25416, 22 hours of incubation, read-out: Minimum inhibitory concentration (MIC). As for the experimental part: as §1
The subject of assay [12] is Salmonella enteritidis NCTC 6676. As to conditions: Salmonella enterica, 22 hours of incubation, read-out: Minimum inhibitory concentration (MIC). As for the experimental part: as §1
For assay [13], the system named is Salmonella typhimurium NCTC 74. As to conditions: Salmonella enterica, 22 hours of incubation, read-out: Minimum inhibitory concentration (MIC). As for the experimental part:
as §1

Assay [14] has as its system Providencia rettgeri NCTC 7475. As to conditions: NCTC7475, 22 hours of incubation, read-out: Minimum inhibitory concentration (MIC). As for the experimental part:
as §1

Assay [15] has as its system Klebsiella pneumoniae NCTC 9528. As to conditions: NCTC9528, 22 hours of incubation, read-out: Minimum inhibitory concentration (MIC). As for the experimental part:
as §1

Assay [16] has as its system Pseudomonas aeruginosa NCTC 10662. Particulars: NCTC10662, 22 hours of incubation, read-out: Minimum inhibitory concentration (MIC). The protocol:
as §1

In assay [17] the test system is Serratia marcescens NCTC 10211. Particulars: NCTC10211, 22 hours of incubation, read-out: Minimum inhibitory concentration (MIC). As for the experimental part: as §1
The test system of assay [18] is Escherichia coli NCTC 12241. Particulars: NCTC12241, 22 hours of incubation, read-out: Minimum inhibitory concentration (MIC). As for the experimental part:
as §1

In brackets after ≈: the same amount, converted by molar mass.

For `CCC[C@H](N)C(=O)N[C@@H](C)C(=O)NC(C)P(=O)(O)O` (stereo partly drawn) [compound I, L-norvalinyl-L-alanyl-D/L-fosfalin], the MIC in assay [1] was more than 8 µg/mL; in assay [2] it was 1 µg/mL (≈ 3.39 µM); in assay [3], more than 8 µg/mL; in assay [4], 1 µg/mL (≈ 3.39 µM); in assay [5] it was 1 µg/mL (≈ 3.39 µM); in assay [6], more than 8 µg/mL. The MIC in assay [7] was more than 8 µg/mL; in [8], 1 µg/mL (≈ 3.39 µM); in assay [9] it was 0.125 µg/mL (≈ 0.423 µM); in assay [10] it was 0.063 µg/mL (≈ 0.213 µM); in assay [11] it was more than 8 µg/mL; in [12], more than 8 µg/mL. The MIC in assay [13] is more than 8 µg/mL; in assay [14], more than 8 µg/mL; in [15] it was 0.25 µg/mL (≈ 0.847 µM); in assay [16], more than 8 µg/mL; in assay [17], 0.25 µg/mL (≈ 0.847 µM); in assay [18] it was 1 µg/mL (≈ 3.39 µM).

As to `CCC[C@H](N)C(=O)N[C@@H](CCl)C(=O)NC(C)P(=O)(O)O` (stereo partly drawn) [compound G, L-Norvalinyl-β-chloro-L-alanyl-D/L-fosfalin], the MIC in assay [1] was more than 8 µg/mL; in assay [2], 2 µg/mL (≈ 6.07 µM); in assay [3], more than 8 µg/mL; in assay [4] it was 1 µg/mL (≈ 3.03 µM); in assay [5], 4 µg/mL (≈ 12.1 µM); in [6] it was 4 µg/mL (≈ 12.1 µM). Moreover, the MIC in assay [7] was more than 8 µg/mL; in [8], 1 µg/mL (≈ 3.03 µM); in [9], 0.25 µg/mL (≈ 0.758 µM); in assay [10], 0.063 µg/mL (≈ 0.191 µM); in [11], more than 8 µg/mL; in assay [12] it was more than 8 µg/mL. The MIC is more than 8 µg/mL in assay [13]; more than 8 µg/mL in [14]; 0.5 µg/mL (≈ 1.52 µM) in assay [15]; more than 8 µg/mL in [16]; 0.5 µg/mL (≈ 1.52 µM) in [17]; 0.5 µg/mL (≈ 1.52 µM) in [18].

For the compound `CSCC[C@H](N)C(=O)N[C@@H](C)C(=O)NC(C)P(=O)(O)O` (stereo partly drawn) [compound J, L-methionyl-L-alanyl-D/L fosfalin], the MIC is more than 8 µg/mL in [1]; 2 µg/mL (≈ 6.11 µM) in assay [2]; more than 8 µg/mL in [3]; 2 µg/mL (≈ 6.11 µM) in assay [4]; 1 µg/mL (≈ 3.05 µM) in [5]; more than 8 µg/mL in assay [6]. Further, the MIC in assay [7] is more than 8 µg/mL; in assay [8] it was 4 µg/mL (≈ 12.2 µM); in assay [9] it was 0.5 µg/mL (≈ 1.53 µM); in [10], 0.125 µg/mL (≈ 0.382 µM); in assay [11], more than 8 µg/mL; in [12] it was more than 8 µg/mL. In addition, the MIC in assay [13] was more than 8 µg/mL; in assay [14] it was more than 8 µg/mL; in assay [15] it was 0.5 µg/mL (≈ 1.53 µM); in assay [16], more than 8 µg/mL; in assay [17], 0.5 µg/mL (≈ 1.53 µM); in assay [18] it was 2 µg/mL (≈ 6.11 µM).

Regarding `CSCC[C@H](N)C(=O)N[C@@H](CCl)C(=O)NC(C)P(=O)(O)O` (stereo partly drawn) [compound H, L-methionyl-β-chloro-L-alanyl-D/L-fosfalin], the MIC in assay [1] is more than 8 µg/mL; in [2], 1 µg/mL (≈ 2.76 µM); in assay [3] it was more than 8 µg/mL; in [4], 0.5 µg/mL (≈ 1.38 µM); in assay [5], 2 µg/mL (≈ 5.53 µM); in assay [6], 4 µg/mL (≈ 11.1 µM). Moreover, the MIC is more than 8 µg/mL in assay [7]; 1 µg/mL (≈ 2.76 µM) in assay [8]; 0.25 µg/mL (≈ 0.691 µM) in [9]; 0.032 µg/mL (≈ 0.0884 µM) in [10]; more than 8 µg/mL in [11]; more than 8 µg/mL in assay [12]. Further, the MIC was more than 8 µg/mL in assay [13]; more than 8 µg/mL in [14]; 0.5 µg/mL (≈ 1.38 µM) in assay [15]; more than 8 µg/mL in assay [16]; 0.25 µg/mL (≈ 0.691 µM) in [17]; 0.5 µg/mL (≈ 1.38 µM) in assay [18].
